Experiments:
human H1 = molecular target: T1, human H1 (Homo sapiens, UniProt P35367); assay: In vitro histamine H1 receptor cell-based aequorin bioluminescence antagonist assay; settings: CHO-K1 cells expressing human H1 and aequorin; histamine at EC80; read-out: H1 Antagonist EC50
T1 construct: host or cells: CHO-K1, also expressing mitochondrion-targeted aequorin
Summary of the method: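 CHO-K1 cells stably expressing human H1 or H4 plus mitochondrial aequorin (H4 also with Gα16), loaded with 5 μM coelenterazine-h for 4 h at ~21 °C. Compounds preincubated 15 min at room temperature, then histamine at EC80 added.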

human H4 = molecular target: T2, human H4 (Homo sapiens, UniProt Q9H3N8); assay: In vitro histamine H4 receptor cell-based aequorin bioluminescence antagonist assay; settings: CHO-K1 cells expressing human H4, aequorin and Gα16; histamine at EC80
T2 construct: host or cells: CHO-K1, also expressing mitochondrion-targeted aequorin and human Gα16
T2 sequence (Q9H3N8 whole entry): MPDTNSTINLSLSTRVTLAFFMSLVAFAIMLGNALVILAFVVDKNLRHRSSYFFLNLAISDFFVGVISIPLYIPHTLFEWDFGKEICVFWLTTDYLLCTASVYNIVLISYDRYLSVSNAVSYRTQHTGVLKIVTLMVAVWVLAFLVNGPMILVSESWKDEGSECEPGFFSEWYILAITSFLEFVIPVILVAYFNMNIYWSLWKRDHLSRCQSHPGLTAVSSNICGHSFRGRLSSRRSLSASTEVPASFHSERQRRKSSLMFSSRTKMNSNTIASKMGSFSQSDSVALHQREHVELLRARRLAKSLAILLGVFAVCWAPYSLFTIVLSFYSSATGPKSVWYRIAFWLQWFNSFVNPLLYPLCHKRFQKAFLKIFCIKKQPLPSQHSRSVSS
Method: In vitro Histamine Receptor Cell-Based Assays
The cell-based assays utilize an aequorin dependent bioluminescence signal. Doubly-transfected, stable CHO—K1 cell lines expressing human H1 or H4, mitochondrion-targeted aequorin, and (H4 only) human G protein Gα16 are obtained from Perkin-Elmer. Cells are maintained in F12 (Ham's) growth medium, containing 10% (vol./vol.) fetal bovine serum, penicillin (100 IU/mL), streptomycin (0.1 mg/mL), zeocin (0.25 mg/mL) and geneticin (0.40 mg/mL). Cell media components are from Invitrogen, Inc. One day prior to assay, the growth medium is replaced with the same, excluding zeocin and geneticin.
For assay preparation, growth medium is aspirated, and cells are rinsed with calcium-free, magnesium-free phosphate-buffered saline, followed by two to three minute incubation in Versene (Invitrogen, Inc.) at 37° C. Assay medium (DMEM:F12 [50:50], phenol-red free, containing 1 mg/mL protease-free bovine serum albumin) is added to collect the released cells, which are then centrifuged. The cell pellet is re-suspended in assay medium, centrifuged once more, and re-suspended in assay medium to a final density of 5×10^6 cells/mL. Coelenterazine-h dye (500 μM in ethanol) is added to a final concentration of 5 μM, and mixed immediately. The conical tube containing the cells is then wrapped with foil to protect the light-sensitive dye. The cells are incubated for four hours further at room temperature (approximately 21° C.) with end-over-end rotation to keep them in suspension.
Just before assay, the dye-loaded cells are diluted to 0.75×10^6 cells/mL (H1 receptor) or 1.5×10^6 cells/mL (H4 receptor) with additional assay medium. Cells are dispensed to 1536 well micro-titer plates at 3 μL/well. To assay receptor antagonism, 60 nl of 100× concentration test compounds in 100% dimethyl sulfoxide (DMSO) are dispensed to the wells, one compound per well, by passive pin transfer, and the plates are incubated for 15 minutes at room temperature. […] The pipette dispenses 3 μL/well of agonist (histamine, at twice the final concentration, where final concentration is a previously determined EC80) in assay medium, with concurrent bioluminescence detection. Agonist activity of test compounds is excluded by separate assays that measure response to test compounds immediately, without added histamine agonist.
CCD image capture on the Lumilux includes a 5 second baseline read prior to agonist addition, and generally a 40 second read per plate after agonist addition. A decrease in bioluminescence signal (measured either as area-under-the-curve, or maximum signal amplitude minus minimum signal amplitude) correlates with receptor antagonism in a dose dependent manner. The negative control is DMSO lacking any test compound. For antagonist assays, the positive controls are diphenhydramine (2-Diphenylmethoxy-N,N-dimethylethylamine, 10 μM final concentration, H1 receptor) or JNJ7777120 (1-[(5-Chloro-1H-indol-2-yl)carbonyl]-4-methyl-piperazine, 10 μM final concentration, H4 receptor). Efficacy is measured as a percentage of positive control activity.

T1 sequence (P35367 whole entry): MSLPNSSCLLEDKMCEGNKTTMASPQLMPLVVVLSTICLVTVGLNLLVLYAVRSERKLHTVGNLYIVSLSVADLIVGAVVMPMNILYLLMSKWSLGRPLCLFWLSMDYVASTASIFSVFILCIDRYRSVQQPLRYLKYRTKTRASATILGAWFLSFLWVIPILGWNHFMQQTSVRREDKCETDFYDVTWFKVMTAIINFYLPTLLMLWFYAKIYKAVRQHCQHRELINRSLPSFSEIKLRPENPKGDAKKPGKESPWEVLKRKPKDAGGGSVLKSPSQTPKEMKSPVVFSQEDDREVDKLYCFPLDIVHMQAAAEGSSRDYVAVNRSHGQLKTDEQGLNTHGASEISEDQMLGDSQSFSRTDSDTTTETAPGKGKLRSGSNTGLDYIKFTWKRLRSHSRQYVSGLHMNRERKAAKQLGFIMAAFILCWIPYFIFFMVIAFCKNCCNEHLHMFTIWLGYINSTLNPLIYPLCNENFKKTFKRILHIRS

Row | SMILES | EC50 (human H1) [µM] | EC50 (human H4) [µM]
1 | Cc1csc2ncnc(CCNc3ccc(Cl)cc3)c12 [Example 32, 4-chloro-N-(2-(5-methylthieno[2,3-d]pyrimidin-4-yl)ethyl)aniline] | > 10 | > 10
2 | Cc1csc2ncnc(NCCCCO)c12 [Example 74, 4-({5-methylthieno[2,3-d]pyrimidin-4-yl}amino)butan-1-ol] | > 10 | > 10
3 | COc1cc2c(cc1OC)CN(c1ncnc3scc(C)c13)CC2 [Example 286, 6,7-dimethoxy-2-{5-methylthieno[2,3-d]pyrimidin-4-yl}-1,2,3,4-tetrahydroisoquinoline] | > 10 | > 10
4 | Cc1csc2ncnc(NCCN3CCCCC3)c12 [Example 107, 5-methyl-N-[2-(piperidin-1-yl)ethyl]thieno[2,3-d]pyrimidin-4-amine] | > 10 | > 10
5 | Cc1csc2ncnc(NCCN3CCCC3)c12 [Example 92, 5-methyl-N-[2-(pyrrolidin-1-yl)ethyl]thieno[2,3-d]pyrimidin-4-amine] | > 10 | > 10
6 | Cc1csc2ncnc(N3CCN(c4ccccc4)CC3)c12 [Example 233, 1-{5-methylthieno[2,3-d]pyrimidin-4-yl}-4-phenylpiperazine] | > 10 | > 10
7 | Cc1csc2ncnc(N3CCC(C)CC3)c12 [Example 191, 4-methyl-1-{5-methylthieno[2,3-d]pyrimidin-4-yl}piperidine] | > 10 | > 10
8 | Cc1csc2ncnc(NCc3ccc(N(C)C)cc3)c12 [Example 170, N-{[4-(dimethylamino)phenyl]methyl}-5-methylthieno[2,3-d]pyrimidin-4-amine] | > 10 | > 10
9 | Cc1csc2ncnc(N3CC(C)CC(C)C3)c12 (stereo not shown) [Example 199, 3,5-dimethyl-1-{5-methylthieno[2,3-d]pyrimidin-4-yl}piperidine] | > 10 | > 10
10 | Cc1csc2ncnc(NC3CC(C)(C)NC(C)(C)C3)c12 [Example 150, 2,2,6,6-tetramethyl-N-{5-methylthieno[2,3-d]pyrimidin-4-yl}piperidin-4-amine] | > 10 | > 10
11 | CCCCN(CC)c1ncnc2scc(C)c12 [Example 195, N-butyl-N-ethyl-5-methylthieno[2,3-d]pyrimidin-4-amine] | > 10 | > 10
12 | Cc1csc2ncnc(N(C)CC(C)C)c12 [Example 185, N,5-dimethyl-N-(2-methylpropyl)thieno[2,3-d]pyrimidin-4-amine] | > 10 | > 10
13 | Cc1csc2ncnc(NCCN3CCOCC3)c12 [Example 109, 5-methyl-N-[2-(morpholin-4-yl)ethyl]thieno[2,3-d]pyrimidin-4-amine] | > 10 | > 10
14 | COc1ccc(CNc2ncnc3scc(C)c23)cc1O [Example 171, 2-methoxy-5-[({5-methylthieno[2,3-d]pyrimidin-4-yl}amino)methyl]phenol] | > 10 | > 10
15 | COc1ccc(CCN(C)c2ncnc3scc(C)c23)cc1OC [Example 264, N-[2-(3,4-dimethoxyphenyl)ethyl]-N,5-dimethylthieno[2,3-d]pyrimidin-4-amine] | > 10 | > 10
16 | CCCN(C)c1ncnc2scc(C)c12 [Example 182, N,5-dimethyl-N-propylthieno[2,3-d]pyrimidin-4-amine] | > 10 | > 10
17 | Cc1csc2ncnc(N3CCN(c4ccccc4Cl)CC3)c12 [Example 3, 4-(4-(2-chlorophenyl)piperazin-1-yl)-5-methylthieno[2,3-d]pyrimidine] | > 10 | > 10
18 | Cc1csc2ncnc(N3C(C)CCCC3C)c12 (stereo not shown) [Example 201, 2,6-dimethyl-1-{5-methylthieno[2,3-d]pyrimidin-4-yl}piperidine] | > 10 | > 10

Row | SMILES | EC50 (human H1) [µM] | EC50 (human H4) [µM]
19 | Cc1csc2ncnc(NC3CC3)c12 [Example 53, N-cyclopropyl-5-methylthieno[2,3-d]pyrimidin-4-amine] | > 10 | > 10
20 | Cc1csc2ncnc(N3CCN(c4cccc(C(F)(F)F)c4)CC3)c12 [Example 288, 1-{5-methylthieno[2,3-d]pyrimidin-4-yl}-4-[3-(trifluoromethyl)phenyl]piperazine] | > 10 | > 10
21 | Cc1ccc(N2CCN(c3ncnc4scc(C)c34)CC2)cc1C [Example 257, 1-(3,4-dimethylphenyl)-4-{5-methylthieno[2,3-d]pyrimidin-4-yl}piperazine] | > 10 | > 10
22 | COc1cc(CN(C)c2ncnc3scc(C)c23)cc(OC)c1OC [Example 276, N,5-dimethyl-N-[(3,4,5-trimethoxyphenyl)methyl]thieno[2,3-d]pyrimidin-4-amine] | > 10 | > 10
23 | Cc1csc2ncnc(NC(C)Cc3ccncc3)c12 (stereo not shown) [Example 120, 5-methyl-N-[1-(pyridin-4-yl)propan-2-yl]thieno[2,3-d]pyrimidin-4-amine] | > 10 | > 10
24 | Cc1csc2ncnc(CC(=O)Nc3ccc(Cl)cc3)c12 [Example 33, N-(4-chlorophenyl)-2-(5-methylthieno[2,3-d]pyrimidin-4-yl)acetamide] | > 10 | > 10
25 | CCN(c1ncnc2scc(C)c12)C1CCCCC1 [Example 210, N-cyclohexyl-N-ethyl-5-methylthieno[2,3-d]pyrimidin-4-amine] | > 10 | > 10
26 | Cc1csc2ncnc(NCc3ccccc3OC(F)(F)F)c12 [Example 172, 5-methyl-N-{[2-(trifluoromethoxy)phenyl]methyl}thieno[2,3-d]pyrimidin-4-amine] | > 10 | > 10
27 | CCN(CC)CCNc1ncnc2scc(C)c12 [Example 94, diethyl[2-({5-methylthieno[2,3-d]pyrimidin-4-yl}amino)ethyl]amine] | > 10 | > 10
28 | CCN(c1ncnc2scc(C)c12)C(Cc1ccccc1)c1ccco1 (stereo not shown) [Example 282, N-ethyl-N-[1-(furan-2-yl)-2-phenylethyl]-5-methylthieno[2,3-d]pyrimidin-4-amine] | > 10 | > 10
29 | Cc1csc2ncnc(N3CCC(C(N)=O)CC3)c12 [Example 211, 1-{5-methylthieno[2,3-d]pyrimidin-4-yl}piperidine-4-carboxamide] | > 10 | > 10
30 | Cc1ccc(Cl)cc1N1CCN(c2ncnc3scc(C)c23)CC1 [Example 275, 1-(5-chloro-2-methylphenyl)-4-{5-methylthieno[2,3-d]pyrimidin-4-yl}piperazine] | > 10 | > 10
31 | Cc1csc2ncnc(N(C)C(Cc3ccccc3)c3ccccc3)c12 (stereo not shown) [Example 278, N-(1,2-diphenylethyl)-N,5-dimethylthieno[2,3-d]pyrimidin-4-amine] | > 10 | > 10
32 | Cc1csc2ncnc(N(C)Cc3ccccc3)c12 [Example 209, N-benzyl-N,5-dimethylthieno[2,3-d]pyrimidin-4-amine] | > 10 | > 10
33 | COc1ccc(Nc2ncnc3scc(C)c23)cc1OC [Example 147, N-(3,4-dimethoxyphenyl)-5-methylthieno[2,3-d]pyrimidin-4-amine] | > 10 | > 10
34 | COc1ccccc1N1CCN(c2ncnc3scc(C)c23)CC1 [Example 262, 1-(2-methoxyphenyl)-4-{5-methylthieno[2,3-d]pyrimidin-4-yl}piperazine] | > 10 | > 10
35 | Cc1csc2ncnc(N3CCN(c4cccc(Cl)c4)CC3)c12 [Example 265, 1-(3-chlorophenyl)-4-{5-methylthieno[2,3-d]pyrimidin-4-yl}piperazine] | > 10 | > 10
